What was measured:
human ΔF508-CFTR = molecular target: T1, human ΔF508-CFTR (Homo sapiens, UniProt P13569, DEL508-508); test: Fluorescence (YFP-H148Q/I152L) I− influx assay of ΔF508-CFTR potentiator activity in FRT cells; format: cell-based; conditions: for Kd: FRT cells, 27° C. rescue, forskolin 20 μM, read-out: Kd for activation of ΔF508-CFTR from the fluorescence assay
T1 construct: expressed in transfected cells; host or cells: Fischer rat thyroid (FRT) epithelial cells
Protocol: (§1) Clonal populations of Fischer rat thyroid (FRT) epithelial cells stably co-expressing human ΔF508-CFTR and the high-sensitivity halide-sensing green fluorescent analog YFP-H148Q/I152L (Galietta et al., A.S. (2001) FEBS Lett. 499, 220-224) were generated by liposome transfection and limiting dilution with Zeocin/G418 selection. More than 100 clones were evaluated for high fluorescence and ΔF508-CFTR plasma membrane targeting after growth at 27° C. for 24 hours. For screening, cells were cultured on plastic in Coon's modified F12 medium supplemented with 10% fetal bovine serum, 2 mM L-glutamnine, 100 U/ml penicillin, and 100 μg/ml streptomycin, and plated on black 96-well microplates (Corning-Costar 3904) at 30,000 cells/well. For short-circuit measurements cells were cultured on Snapwell permeable supports (Corning-Costar) at 500,000 cells/insert. Some measurements were done using stably transfected FRT cells expressing YFP-H148Q and wildtype- or G551D-CFTR (Galietta et al., (2001) J. Biol. Chem. 276, 19723-19728). Patch clamp experiments were done on ΔF508-CFTR-expressing FRT cells plated in 35-mm Petri dishes.
For assay of ΔF508-CFTR potentiator activity the incubator (27° C., 90% humidity, 5% CO2/95% air) was loaded with forty-to-sixty 96-well plates containing FRT cells. After an 18-24 hour incubation plates were washed 3 times with PBS (300 μl/wash) leaving 50 μl PBS. 10 μl of PBS containing 120 μM forskolin was added, and after 5 min test compounds (0.6 μl of 0.25 mM DMSO solution) were added to each well to give 2.5 μM final-compound concentrations. After 15 min, 96-well plates were transferred to a plate reader for fluorescence assay. Each well was assayed individually for I^− influx by recording fluorescence continuously (200 ms per point) for 2 s (baseline) and then for 12 s after rapid (<1 s) addition of 160 μL of isosmolar PBS in which 137 mM Cl^− was replaced by I^−.I^− influx rates were computed from initial fluorescence versus time-curve slopes (determined by 3rd order polynomial regression) after normalization for total fluorescence (background subtracted initial fluorescence).
The high-throughput screen was designed to identify compounds that activated ΔF508-CFTR when expressed at the cell plasma membrane. FRT epithelial cells co-expressing ΔF508-CFTR and a high sensitivity green fluorescent protein-based halide indicator were incubated at 27° C. for 24 h to permit ΔF508-CFTR plasma membrane targeting (FIG. 1A). After washing, forskolin (20 μM) and test compounds (2.5 μM) were added to individual wells of 96-well plates. The I^− influx assay was carried out ˜15 min later by measurement of the time course of decreasing YFP fluorescence after creation of an inwardly-directed I^− gradient. A high concentration of forskolin was used to identify ΔF508-CFTR potentiators that may interact directly with ΔF508-CFTR rather than alter cAMP concentration. Since activation of CFTR requires cAMP stimulation, forskolin, an enhancer of cAMP, was added to the in vitro models in order to mimic the cellular cAMP stimulation.
The strong potentiators were subjected to secondary analysis to select a subset for further analysis. None of the strong potentiators stimulated I^− influx in the fluorescence assay using FRT null cells (expressing YFP-H148Q/[…] alone) or in ΔF508-CFTR expressing cells in the absence of forskolin. The increased I^− influx for each potentiator was blocked by the thiazolidinone CFTR inhibitor CFTRinh-172 (19). […] Several of these compounds are shown in FIG. 6, along with data as to the activity of these compounds.

[1] = test system: human bronchial epithelial cells; test: Short-circuit current in human bronchial epithelial cells; format: cell-based; conditions: S.E., n=3-5
Protocol: Using chamber experiments were performed 7-9 days after plating ΔF508-CFTR expressing FRT cells on Snapwell inserts. The basolateral solution contained (in mM): 130 NaCl, 2.7 KCl, 1.5 KH2PO4, 1 CaCl2, 0.5 MgCl2, 10 glucose, 10 Na-Hepes (pH 7.3). In the apical bathing solution 65 mM NaCl was replaced by Na gluconate, and CaCl2 was increased to 2 mM. Solutions were bubbled with air and maintained at 37° C. The basolateral membrane was permeabilized with 250 μg/ml amphotericin B. For human bronchial epithelial cells, apical and basolateral chambers contained 126 mM NaCl, 0.38 mM KH2PO4, 2.1 mM K2HPO, 1 mM MgSO4, 1 mM CaCl2, 24 mM NaHCO3, and 10 mM glucose (basolateral membrane not permeabilized). The hemichambers were connected to a DVC-1000 voltage clamp (World Precision Instruments) via Ag/AgCl electrodes and 1 M KCl agar bridges for recording short-circuit current
The mean increase in short-circuit current (Isc) was 1.2±0.1 μA/cm^2 in the human cells (S.E., n=25). In five sets of measurements on the human bronchial cells, the percentage increase in Isc after compound versus forskolin alone was 174±28 (genistein); percentages for ΔF508act-01 through ΔF508act-06 were (S.E., n=3-5): 174±34, 131±35, 40±11, 51±17, 107±42, and 104±35, respectively.

wildtype CFTR = molecular target: T2, wildtype CFTR (Homo sapiens, UniProt P13569); test: Activation of wildtype CFTR in transfected FRT cells; format: cell-based; conditions: in the presence of forskolin 50 nM
T2 construct: expressed in transfected cells; host or cells: FRT cells
Protocol: as §1
The six ΔF508-CFTR potentiators shown in FIG. 2A were tested for activation of wildtype and G551D-CFTR in transfected FRT cells. […] Kd values for activation of wildtype CFTR by ΔF508act-01 through ΔF508act-06 were (in μM): 0.18±0.02, 1.3±0.2, 2.2±0.3, 0.02±0.005, 0.06±0.01 and 0.05±0.01, respectively. These potencies are quite different from those for ΔF508-CFTR activation.

cellular cAMP content = test: Cellular cAMP content in FRT cells (BIOTRAK enzymatic immunoassay); format: cell-based, rat
Protocol: (§2) cAMP activity was measured using the BIOTRAK enzymatic immunoassay (Amersham) on FRT cell lysates after incubation with the compound of interest for 10 min without or with 0.5 μM forskolin. Phosphatase activity was determined on cell homogenates using a non-radioactive assay kit (Promega) as described previously (Galietta et al., (2001) J. Biol. Chem. 276, 19723-19728).
(§3) The compounds shown in FIGS. 2A and 3A were assayed for cAMP stimulation and phosphatase inhibition. Cellular cAMP content was measured in FRT cells in the presence of a low forskolin concentration (0.5 μM) with or without test compounds. […] Maximal forskolin (20 μM) gave 1350±17 finol/well. The ΔF508 potentiators at 5 μM gave no increase in cellular cAMP content, except for ΔF508act-04 and ΔF508act-06, which gave modest cAMP elevations (212±17 and 281±37 finol/well, respectively). […] The ΔF508-CFTR potentiators (25 μM, 48 h) were judged to be non-toxic to FRT cells by the dihydrorhodamine assay (Wang et al., (2000) J. Physiol. 524:637-638) and by unimpaired cell growth.

G551D-CFTR = molecular target: T3, G551D-CFTR (Homo sapiens, UniProt P13569, G551D); test: Activation of G551D-CFTR in transfected FRT cells; format: cell-based; conditions: positive control 50 μM + 20 μM forskolin
T3 construct: expressed in transfected cells; host or cells: FRT cells
Protocol: as §1, with “For screening, cells were cultured on plastic in Coon's modified F12 medium supplemented with 10% fetal bovine serum, 2 mM L-glutamnine, 100 U/ml penicillin, and 100 μg/ml streptomycin, and plated on black 96-well microplates (Corning-Costar 3904) at 30,000 cells/well.” left out

phosphatase activity = test: Phosphatase activity assay on cell homogenates; format: biochemical
Protocol: as §2, §3

[2] = compound 5 μM, forskolin 0.5 μM, control 129±7

T1 sequence (P13569 with tags, fused parts or gaps DEL508-508): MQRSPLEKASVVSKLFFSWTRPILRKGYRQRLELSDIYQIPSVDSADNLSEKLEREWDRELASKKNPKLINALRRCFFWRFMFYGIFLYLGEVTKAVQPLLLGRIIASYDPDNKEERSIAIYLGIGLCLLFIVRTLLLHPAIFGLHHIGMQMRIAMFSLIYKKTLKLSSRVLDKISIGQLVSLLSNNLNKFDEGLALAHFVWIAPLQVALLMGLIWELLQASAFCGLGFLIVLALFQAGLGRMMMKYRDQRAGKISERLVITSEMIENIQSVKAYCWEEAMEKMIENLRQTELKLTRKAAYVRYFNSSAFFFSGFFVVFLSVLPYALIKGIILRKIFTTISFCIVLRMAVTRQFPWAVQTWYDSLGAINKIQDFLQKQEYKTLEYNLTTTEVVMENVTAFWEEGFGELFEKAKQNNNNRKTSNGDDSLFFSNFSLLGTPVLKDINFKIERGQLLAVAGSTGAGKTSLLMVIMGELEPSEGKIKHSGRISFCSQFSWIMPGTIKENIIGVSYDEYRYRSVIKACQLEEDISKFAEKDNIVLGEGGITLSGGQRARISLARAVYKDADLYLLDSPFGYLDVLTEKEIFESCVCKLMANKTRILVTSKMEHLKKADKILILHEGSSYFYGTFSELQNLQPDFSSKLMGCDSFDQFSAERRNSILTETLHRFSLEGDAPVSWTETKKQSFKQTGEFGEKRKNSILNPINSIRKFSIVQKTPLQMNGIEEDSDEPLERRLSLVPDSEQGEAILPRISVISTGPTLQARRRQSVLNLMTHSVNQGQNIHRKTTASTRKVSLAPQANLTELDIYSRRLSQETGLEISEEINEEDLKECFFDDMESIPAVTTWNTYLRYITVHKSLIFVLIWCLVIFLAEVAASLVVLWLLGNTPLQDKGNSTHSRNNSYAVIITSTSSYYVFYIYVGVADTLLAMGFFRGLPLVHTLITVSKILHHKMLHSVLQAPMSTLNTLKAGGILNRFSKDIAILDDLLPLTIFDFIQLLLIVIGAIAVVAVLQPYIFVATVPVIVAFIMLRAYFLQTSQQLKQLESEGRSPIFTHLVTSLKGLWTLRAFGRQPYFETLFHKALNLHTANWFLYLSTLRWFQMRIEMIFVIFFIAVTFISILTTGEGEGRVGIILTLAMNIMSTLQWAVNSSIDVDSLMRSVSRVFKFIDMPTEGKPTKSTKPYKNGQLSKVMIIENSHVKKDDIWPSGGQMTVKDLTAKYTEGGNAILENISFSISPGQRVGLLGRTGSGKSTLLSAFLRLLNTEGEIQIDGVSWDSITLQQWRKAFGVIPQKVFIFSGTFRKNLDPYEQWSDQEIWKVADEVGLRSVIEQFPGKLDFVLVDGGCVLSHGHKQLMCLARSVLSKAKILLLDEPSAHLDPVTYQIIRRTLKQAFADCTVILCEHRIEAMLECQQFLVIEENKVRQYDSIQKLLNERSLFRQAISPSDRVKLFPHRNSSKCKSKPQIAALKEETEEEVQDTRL
T2 sequence (P13569 whole entry): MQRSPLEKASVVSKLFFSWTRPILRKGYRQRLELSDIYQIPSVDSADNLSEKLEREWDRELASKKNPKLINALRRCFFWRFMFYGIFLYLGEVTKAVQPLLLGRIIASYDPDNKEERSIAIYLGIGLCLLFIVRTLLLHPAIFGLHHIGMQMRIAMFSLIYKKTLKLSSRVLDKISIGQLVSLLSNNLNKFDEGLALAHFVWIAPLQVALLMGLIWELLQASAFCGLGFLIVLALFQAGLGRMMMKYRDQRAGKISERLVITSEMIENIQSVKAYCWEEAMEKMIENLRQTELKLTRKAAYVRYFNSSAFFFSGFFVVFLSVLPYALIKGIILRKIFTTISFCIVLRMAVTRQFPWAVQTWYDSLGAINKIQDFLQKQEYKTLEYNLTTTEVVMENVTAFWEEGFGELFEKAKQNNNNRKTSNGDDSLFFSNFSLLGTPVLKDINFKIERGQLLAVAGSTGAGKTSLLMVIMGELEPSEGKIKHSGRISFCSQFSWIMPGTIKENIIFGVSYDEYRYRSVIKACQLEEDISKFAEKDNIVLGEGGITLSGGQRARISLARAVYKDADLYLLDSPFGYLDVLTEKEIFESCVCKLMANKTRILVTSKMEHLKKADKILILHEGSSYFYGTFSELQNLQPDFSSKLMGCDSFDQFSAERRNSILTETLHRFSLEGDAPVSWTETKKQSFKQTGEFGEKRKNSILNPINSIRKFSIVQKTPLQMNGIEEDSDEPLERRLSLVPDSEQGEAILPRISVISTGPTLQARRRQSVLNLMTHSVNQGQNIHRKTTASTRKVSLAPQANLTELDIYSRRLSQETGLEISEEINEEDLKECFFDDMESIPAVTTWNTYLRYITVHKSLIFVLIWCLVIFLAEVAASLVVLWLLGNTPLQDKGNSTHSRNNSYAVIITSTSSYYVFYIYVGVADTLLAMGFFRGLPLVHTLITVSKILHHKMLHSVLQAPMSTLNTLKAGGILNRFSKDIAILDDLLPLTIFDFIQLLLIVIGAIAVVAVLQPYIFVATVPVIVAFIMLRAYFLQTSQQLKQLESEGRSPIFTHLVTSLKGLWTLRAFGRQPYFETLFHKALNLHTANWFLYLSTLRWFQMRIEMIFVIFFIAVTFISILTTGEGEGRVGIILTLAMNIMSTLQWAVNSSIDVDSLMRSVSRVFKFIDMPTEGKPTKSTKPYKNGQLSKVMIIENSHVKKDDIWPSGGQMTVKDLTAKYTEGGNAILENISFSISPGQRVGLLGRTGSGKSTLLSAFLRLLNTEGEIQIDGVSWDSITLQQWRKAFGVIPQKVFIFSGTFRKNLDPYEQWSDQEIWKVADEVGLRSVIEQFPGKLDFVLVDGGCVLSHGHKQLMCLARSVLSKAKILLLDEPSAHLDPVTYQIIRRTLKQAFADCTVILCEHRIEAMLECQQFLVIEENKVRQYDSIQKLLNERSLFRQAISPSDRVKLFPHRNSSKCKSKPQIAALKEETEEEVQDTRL
T3 sequence (P13569 whole entry G551D): as the sequence (P13569 whole entry) above, with G551D counted along it

With `O=C(O)c1ccc(/C=C2\SC(=S)N(c3cccc(C(F)(F)F)c3)C2=O)cc1` [CFTRinh-172, reference compound] as the compound, how does the “effect on potentiator-increased I− influx” value (human ΔF508-CFTR) read?
Its value is “blocked”.

How did the “percentage increase in Isc after compound versus forskolin alone” value (shortened to “percentage increase in Isc”) [1] turn out when `COc1ccc(-n2c(C)cc(C=C3C(=O)NC(=O)N(Cc4ccco4)C3=O)c2C)cc1` [ΔF508act-01, 1-Furan-2-yhnethyl-5-[1-(4-methoxy-phenyl)-2,5-dimethyl-1H-pyrrol-3-ylmethylene]-pyrimidine-2,4,6-trione] was run?
The value was 174±34%.

What about the Kd (human ΔF508-CFTR) of the same compound?
The Kd was 1.3 ± 0.1 µM.

For `Cc1cc(Br)c2[nH]c3c(c2c1)CCCC3=O` [ΔF508act-03, 8-Bromo-6-methyl-2,3,4,9-tetrahydro-carbazol-1-one], which “percentage increase in Isc” value [1] is on record?
The value was 40±11%.

What about the Kd (wildtype CFTR) of the same compound?
Its Kd is 2.2 ± 0.3 µM.

What about the Kd (human ΔF508-CFTR) of the same compound?
Its Kd is 0.7 ± 0.04 µM.

For `COC(=O)C1=C(C)NC(C)=C(C(=O)OC)C1c1ccc(C(C)C)cc1` [ΔF508act-05, 4-(4-Isopropyl-phenyl)-2,6-dimethyl-1,4-dihydro-pyridine-3,5-dicarboxylic acid dimethyl ester], which “percentage increase in Isc” value [1] is on record?
Its value is 107±42%.

What about the Kd (wildtype CFTR) of the same compound?
The Kd was 0.06 ± 0.01 µM.

What about the Kd (human ΔF508-CFTR) of the same compound?
The Kd was 0.1 ± 0.01 µM.

`C=C[C@@]1(C)CC(=O)[C@]2(O)[C@@]3(C)[C@@H](O)CCC(C)(C)[C@@H]3[C@H](O)[C@H](OC(C)=O)[C@@]2(C)O1` [forskolin, reference compound] was tested. Which cAMP content (cellular cAMP content; maximal forskolin 20 μM) did it give?
The cAMP content was 1350±17 finol/well.

Which results are given for `O=c1c(-c2ccc(O)cc2)coc2cc(O)cc(O)c12` [genistein, reference compound]?
percentage increase in Isc after compound versus forskolin alone [1]: 174±28%; G551D-CFTR activation (G551D-CFTR): strong activation

With `NC(=O)c1oc2ccccc2c1NC(=O)c1ccccc1` [ΔF508act-06, 3-Benzoylamino-benzofuran-2-carboxylic acid amide] as the compound, how does the “percentage increase in Isc” value [1] read?
The value was 104±35%.

And the Kd (wildtype CFTR)?
Its Kd is 0.05 ± 0.01 µM.

What about the cAMP content (cellular cAMP content; [2]) of the same compound?
The cAMP content was 281±37 finol/well.

What about the Kd (human ΔF508-CFTR) of the same compound?
Its Kd is 0.65 ± 0.08 µM.

Which results are given for `NC(=O)c1c(NC(=O)c2ccccc2Cl)sc2c1CCCC2` [ΔF508act-02, 2-(2-Chloro-benzoylamino)-4,5,6,7-tetrahydro-benzo[b]thiophene-3-carboxylic acid amide]?
percentage increase in Isc after compound versus forskolin alone [1]: 131±35%; Kd (wildtype CFTR): 1.3 ± 0.2 µM; Kd (human ΔF508-CFTR): 0.18 ± 0.03 µM

How did the “inhibition of phosphatase activity” value (phosphatase activity) turn out when `C=C1[C@@H](O)[C@@H]2O[C@]3(CC[C@H](/C=C/[C@@H](C)[C@@H]4CC(C)=C[C@@]5(O[C@H](C[C@@](C)(O)C(=O)O)CC[C@H]5O)O4)O3)CC[C@H]2O[C@@H]1[C@@H](O)C[C@H](C)[C@H]1O[C@@]2(CCCCO2)CC[C@H]1C` [okadaic acid] was run?
The value was greater than 90%.

What about the phosphatase activity (phosphatase activity; control 703±69) of the same compound?
The phosphatase activity was 56±15 pmol free phosphate/μg protein.

With `CC(C)(C)c1ccc(Oc2c(N)ccc3c2C(=O)c2ccccc2C3=O)cc1` [ΔF508act-04, 2-Amino-1-(4-tert-butyl-phenoxy)-anthraquinone] as the compound, how does the “percentage increase in Isc” value [1] read?
Its value is 51±17%.

What about the Kd (wildtype CFTR) of the same compound?
Its Kd is 0.02 ± 0.005 µM.

And the cAMP content (cellular cAMP content; [2])?
The cAMP content was 212±17 finol/well.

What about the Kd (human ΔF508-CFTR) of the same compound?
Its Kd is 0.87 ± 0.1 µM.

Reference: patent publication US7696244B2, “Compounds having activity in increasing ion transport by mutant-CFTR and uses thereof” (The Regents of the University of California, priority 2003, dated 2010)
